Active and inactive are the calls of the source. The calls are words filed in the database; no cut-off is given here.
Key:
[1] = Selectivity index, ratio of CC50 for human HEK293 cells to IC50 for antiplasmodial activity against chloroquine-resistant Plasmodium falciparum INDO; format: toxicity; conditions: HEK293 cells versus Plasmodium falciparum INDO
BEAS-2B [2] = test: Induction of apoptosis in human BEAS-2B cells assessed as late apoptotic cells measured after 24 hrs by annexinV-FITC/propidium iodide staining based flow cytometry; format: functional
L02 = test: Anticancer activity against human L02 cells assessed as cell growth inhibition measured for 72 hrs by MTT assay; format: functional, cell-based; conditions: L02, 72 h
Plasmodium falciparum [3] = test: Antiplasmodial activity against chloroquine-resistant Plasmodium falciparum INDO assessed as growth inhibition by SYBER green 1 dye based fluorescence assay; format: functional, organism-based
[4] = Selectivity ratio of IC50 for anticancer activity against human L02 cells to IC50 for anticancer activity against human HepG2 cells; format: toxicity, cell-based; conditions: L02 cells versus HepG2 cells, read-out: Ratio IC50
[5] = Selectivity ratio of IC50 for anticancer activity against human BEAS-2B cells to IC50 for anticancer activity against human A549 cells; format: toxicity, cell-based; conditions: BEAS-2B cells versus A549 cells, read-out: Ratio IC50
A549 [6] = test: Anticancer activity against human A549 cells assessed as cell growth inhibition measured for 72 hrs by MTT assay; format: functional, cell-based; conditions: A549, 72 h
A549 [7] = test: Induction of apoptosis in human A549 cells assessed as early apoptotic cells measured after 24 hrs by annexinV-FITC/propidium iodide staining based flow cytometry; format: functional
BEAS-2B [8] = test: Anticancer activity against human BEAS-2B cells assessed as cell growth inhibition measured for 72 hrs by MTT assay; format: functional, cell-based
HepG2 = test: Anticancer activity against human HepG2 cells assessed as cell growth inhibition measured for 72 hrs by MTT assay; format: functional, cell-based; conditions: HepG2, 72 h
[9] = Cytotoxicity against human HEK293 cells assessed as cell viability measured for 24 hrs by MTT assay; format: cell-based
Plasmodium falciparum [10] = test: Antiplasmodial activity against artemisinin-resistant Plasmodium falciparum Cam 3.1 R539 assessed as growth inhibition by SYBER green 1 dye based fluorescence assay; format: functional, organism-based
Plasmodium falciparum [11] = test: Resistance index, ratio of IC50 for antiplasmodial activity against artemisinin-resistant Plasmodium falciparum Cam 3.1 R539 to IC50 for antiplasmodial activity against chloroquine-resistant Plasmodium falciparum INDO; format: functional
Plasmodium falciparum [12] = test: Antiplasmodial activity against schizont stage chloroquine-resistant Plasmodium falciparum INDO assessed as parasite killing for 3 to 6 hrs by stage specific inhibition assay relative to control; format: functional; design: scale not given: the % may be the effect or the level left; conditions: time 3-6 hrs
Plasmodium falciparum [13] = test: Antiplasmodial activity against schizont stage chloroquine-resistant Plasmodium falciparum INDO assessed as parasite killing for 9 to 12 hrs by stage specific inhibition assay relative to contol; format: functional; design: scale not given: the % may be the effect or the level left; conditions: time 9-12 hrs
Plasmodium falciparum [14] = test: Antiplasmodial activity against ring stage chloroquine resistant Plasmodium falciparum INDO assessed as percentage survival at 700 nM for 6 hrs by ring stage survival assay; format: functional
Plasmodium falciparum [15] = test: Antiplasmodial activity against ring stage chloroquine-resistant Plasmodium falciparum Cam 3.1 R539 assessed as percentage survival at 70 nM for 6 hrs by ring stage survival assay; format: functional
Plasmodium falciparum [16] = test: Antiplasmodial activity against ring stage chloroquine-resistant Plasmodium falciparum INDO assessed as ring stage parasite killing for 12 hrs by stage specific inhibition assay relative to control; format: functional; design: scale not given: the % may be the effect or the level left
Plasmodium berghei [17] = test: Antimalarial activity against Plasmodium berghei ANKA infected in Balb/c mouse assessed as suppression of parasitemia at 50 mg/kg, ip administered for 4 days by microscopic analysis; format: functional; conditions: time 4 day
Plasmodium falciparum [18] = test: Antiplasmodial activity against trophozoite stage chloroquine-resistant Plasmodium falciparum INDO assessed as parasite killing for 4 to 8 hrs by stage specific inhibition assay relative to control; format: functional, organism-based; conditions: time 4-8 hrs
Plasmodium falciparum [19] = test: Antiplasmodial activity against trophozoite stage chloroquine-resistant Plasmodium falciparum INDO assessed as parasite killing for 0 to 4 hrs by stage specific inhibition assay relative to control; format: functional; design: scale not given: the % may be the effect or the level left; conditions: time 0-4 hrs
Plasmodium falciparum [20] = test: Antiplasmodial activity against schizont stage chloroquine-resistant Plasmodium falciparum INDO assessed as parasite killing for 6 to 9 hrs by stage specific inhibition assay relative to control; format: functional; design: scale not given: the % may be the effect or the level left; conditions: time 6-9 hrs
Plasmodium falciparum [21] = test: Antiplasmodial activity against schizont stage chloroquine-resistant Plasmodium falciparum INDO assessed as parasite killing for 0 to 3 hrs by stage specific inhibition assay relative to control; format: functional, organism-based; conditions: time 0-3 hrs
Plasmodium falciparum [22] = test: Antiplasmodial activity against ring stage chloroquine-resistant Plasmodium falciparum Cam 3.1 R539 assessed as percentage survival at 700 nM for 6 hrs by ring stage survival assay relative to control; format: functional
Plasmodium falciparum [23] = test: Antiplasmodial activity against ring stage chloroquine-resistant Plasmodium falciparum INDO assessed as percentage survival at 70 nM for 6 hrs by ring stage survival assay; format: functional, organism-based
Plasmodium falciparum [24] = test: Antiplasmodial activity against ring stage chloroquine-resistant Plasmodium falciparum INDO assessed as ring stage parasite killing for 0 to 6 hrs by stage specific inhibition assay relative to control; format: functional; design: scale not given: the % may be the effect or the level left; conditions: time 0-6 hrs
Plasmodium berghei [25] = test: Antimalarial activity against Plasmodium berghei ANKA infected in Balb/c mouse assessed as suppression of parasitemia at 50 mg/kg, po administered for 4 days by microscopic analysis; format: functional; conditions: time 4 day

Compound | selectivity ratio [1] | Activity (BEAS-2B [2]) [%] | IC50 (L02) [µM] | IC50 (Plasmodium falciparum [3]) [µM] | selectivity ratio [4] | selectivity ratio [5] | IC50 (A549 [6]) [µM] | Activity (A549 [7]) [%] | IC50 (BEAS-2B [8]) [µM] | IC50 (HepG2) [µM] | CC50 at 24 h [9] [µM] | IC50 (Plasmodium falciparum [10]) [µM] | Ratio IC50 (Plasmodium falciparum [11]) | Activity (Plasmodium falciparum [14]) [%] | Activity (Plasmodium falciparum [15]) [%] | Activity (Plasmodium falciparum [16]) [%] | Activity (Plasmodium berghei [17]) [%] | Activity (Plasmodium falciparum [18]) | Activity (Plasmodium falciparum [19]) [%] | Activity (Plasmodium falciparum [21]) | other results
C=C(c1ccc(Cl)c(Cl)c1Cl)C1COC2(CCCC2)OO1 (stereo unspecified) | 72 | 8.6 | 1.19 | 0.0206 | 0.13 | 16.7 | 0.69 | 93.6 | 11.5 | 8.45 | 1.44 | – | – | – | – | – | – | – | – | – | –
C=C(c1ccc(Cl)cc1Cl)C1COC2(CCCCC2)OO1 (stereo unspecified) | 145 | 4.5 | 3.69 | 0.018 | 0.097 | 20.6 | 0.81 | 78 | 16.7 | 17.6 | 2.47 | 0.109 | 6.09 | – | – | – | – | – | – | – | –
C=C(c1ccc(Cl)cc1Cl)C1COC2(CCCC2)OO1 (stereo unspecified) | 1350 | – | 2.55 | 0.00969 | 0.2 | 12.2 | 1.43 | – | 17.4 | 15.7 | 12.1 | 0.0707 | 7.29 | 10 | 100 | 100 | 100 | Active | 25 | Active | Activity (Plasmodium falciparum [12]): 60%; Activity (Plasmodium falciparum [13]): 100%; Activity (Plasmodium falciparum [20]): 100%; Activity (Plasmodium falciparum [22]): 20%; Activity (Plasmodium falciparum [23]): inactive; Activity (Plasmodium falciparum [24]): 66%; Activity (Plasmodium berghei [25]): 0%
C=C(c1ccc(OC)c(F)c1)C1COC2(OO1)C1CC3CC(C1)CC2C3 (stereo unspecified) | 3970 | – | 11.9 | 0.00448 | 0.57 | 0.68 | 48.2 | – | 61.2 | 32.1 | 15.9 | 0.0401 | 8.95 | 100 | 30 | 100 | 100 | Active | 50 | Active | Activity (Plasmodium falciparum [22]): 6%; Activity (Plasmodium falciparum [23]): inactive; Activity (Plasmodium falciparum [24]): 38%; Activity (Plasmodium berghei [25]): 100%

Source: ChEMBL document CHEMBL5053494, “Novel halogenated arylvinyl-1,2,4 trioxanes as potent antiplasmodial as well as anticancer agents: Synthesis, bioevaluation, structure-activity relationship and in-silico studies” (Eur J Med Chem, 2021)
